The values below come from the supplement of paper PMC10307832.

What all share (test): relative viability (nuclei count vs DMSO), 5 days (fraction); higher = more cells survive
Compound in assay [1]: Cc1ccccc1C(C(=O)NC1CCCCC1)N(C(=O)Cn1ccnc1C)c1cccc(F)c1 [IDH-C35] + CC(=O)Nc1cccc(-n2c(=O)n(C3CC3)c(=O)c3c(Nc4ccc(I)cc4F)n(C)c(=O)c(C)c32)c1 [Trametinib] (partner 0.02 µM)
The gist of the method: (§1)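 After 5 days of treatment, lung cancer cells in 1536-well plates were fixed and stained in a single step (final 0.05% Triton X-100, 1% formaldehyde, 1 ug/ml Hoechst) and their nuclei counted on 4× images. Treatment had been applied by pin tool the day after seeding as one drug alone or as a fixed anchor-drug dose with five library-drug doses (not always all listed) in √10 steps. Relative viability is the nuclei count of treated wells divided by that of vehicle wells, and values are medians of duplicate plates.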

Compound in assay [2]: Cc1ccccc1C(C(=O)NC1CCCCC1)N(C(=O)Cn1ccnc1C)c1cccc(F)c1 [IDH-C35] + COc1cccc2cc(-c3nc([C@H]4CC[C@H](C(=O)O)CC4)n4ncnc(N)c34)[nH]c12 [OSI-027] (partner 0.5 µM)
The gist of the method: as §1

Compound in assay [3]: Cc1ccccc1C(C(=O)NC1CCCCC1)N(C(=O)Cn1ccnc1C)c1cccc(F)c1 [IDH-C35] + CC1(C)CCC(c2ccc(Cl)cc2)=C(CN2CCN(c3ccc(C(=O)NS(=O)(=O)c4ccc(N[C@H](CCN5CCOCC5)CSc5ccccc5)c(S(=O)(=O)C(F)(F)F)c4)cc3)CC2)C1 [Navitoclax] (partner 0.5 µM)
The method in brief:
as §1

Compound in assay [4]: CC1=C(C(=NN1)C)CC2=C(C3=C(S2)N(C(=O)N(C3=O)C)CC(C)C)C(=O)N4C[C@@H](CO4)O + Cc1nc(Nc2ncc(C(=O)Nc3c(C)cccc3Cl)s2)cc(N2CCN(CCO)CC2)n1 [Dasatinib] (partner 0.075 µM)
The method in brief: as §1

Turning to UMC-11, the relative viability was 0.738 in assay [1] (first compound 0.08 µM); 0.761 in assay [1] (first compound 0.253 µM); 0.617 in assay [1] (first compound 0.8 µM); 0.685 in assay [1] (first compound 2.53 µM); 0.772 in assay [1] (first compound 8 µM); 0.444 in assay [2] (first compound 0.08 µM). Moreover, the relative viability in assay [2] (first compound 0.253 µM) came out at 0.47; in assay [2] (first compound 0.8 µM), 0.473; in assay [2] (first compound 2.53 µM), 0.482; in assay [2] (first compound 8 µM) it was 0.463; in assay [3] (first compound 0.08 µM), 0.298; in assay [3] (first compound 0.253 µM), 0.347. The relative viability in assay [3] (first compound 0.8 µM) worked out at 0.323; in assay [3] (first compound 2.53 µM), 0.32; in assay [3] (first compound 8 µM), 0.344; in assay [4] (first compound 0.0025 µM), 0.435; in assay [4] (first compound 0.007906 µM) it was 0.468; in assay [4] (first compound 0.025 µM), 0.451. Moreover, the relative viability in assay [4] (first compound 0.07906 µM) came to 0.348; in assay [4] (first compound 0.25 µM), 0.439.
